Assay results as given in PubChem BioAssay (NCI).
Where “and” joins values, the source holds several entries; their conditions need not be identical. Identical values can stand only once.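 96-well plates; 48 h exposure; 5 concentrations. Endpoints by linear interpolation between flanking doses. Not reached: highest tested concentration assigned. GI50 marks 50% less growth. TGI marks complete inhibition of growth.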

Columns and labels:
Assay in all cases: growth of human tumour cells (NCI), 48 h
HT29 colon = tested on: HT29 colon
MOLT-4 leukemia = tested on: MOLT-4 leukemia
DU-145 prostate = tested on: DU-145 prostate
U251 CNS = tested on: U251 CNS
SF-539 CNS = tested on: SF-539 CNS
COLO 205 colon = tested on: COLO 205 colon
HL-60(TB) leukemia = tested on: HL-60(TB) leukemia
EKVX NSCLC = tested on: EKVX NSCLC
T-47D breast = tested on: T-47D breast
MCF7 breast = tested on: MCF7 breast

SMILES	TGI (HT29 colon) [µM]	TGI (MOLT-4 leukemia) [µM]	TGI (DU-145 prostate)	TGI (U251 CNS)	TGI (SF-539 CNS) [µM]	TGI (COLO 205 colon) [µM]	TGI (HL-60(TB) leukemia) [µM]	GI50 (HT29 colon) [µM]	GI50 (EKVX NSCLC) [µM]	TGI (EKVX NSCLC)	GI50 (MOLT-4 leukemia) [µM]	GI50 (T-47D breast) [µM]	TGI (T-47D breast)	GI50 (MCF7 breast) [µM]	TGI (MCF7 breast) [µM]	GI50 (U251 CNS) [µM]	GI50 (SF-539 CNS) [µM]	GI50 (COLO 205 colon) [µM]	GI50 (HL-60(TB) leukemia) [µM]	GI50 (DU-145 prostate) [µM]
C=CCOCCCC(=O)C(=[N+]=[N-])C(=O)OC	> 100	> 100	> 100 µM	> 100 µM	> 100	> 100	> 100													
O=C1CC(N2C(=O)/C(=C/C(Cl)=C\c3ccc([N+](=O)[O-])cc3)SC2=S)C(=O)N1c1ccc(Cl)cc1 (stereo not drawn)	4.6	13.4		2.47 µM	4.14	3.76	8.86	0.632	3.11	> 100 µM	0.596	2.03	6.34 µM	1.38	> 100	0.478	1.69	1.4	1.45	
COC1(OC)C[C@H](C)[C@@]23O[C@]24c2cc(O)c5c(c2N[C@H]3C#C/C=C\C#C[C@]14O)C(=O)c1ccccc1C5=O		< 0.001	0.00686 µM and 0.048 µM	0.0421 µM and 0.0705 µM	0.00304	0.0369	0.00105	0.0226	0.0527	0.213 µM and 0.202 µM	< 0.001	0.0104	0.0774 µM and 0.455 µM			0.00251	< 0.001		< 0.001	0.00164
O=c1c2c([nH]c3nccn13)CCCC2	> 10	> 10	> 10 µM	> 10 µM	> 10	> 10	> 10			> 10 µM			> 10 µM		> 10					
Cc1cc(C)n(C(=O)C(C)Sc2nnc(SC(C)C(=O)n3nc(C)cc3C)s2)n1 (stereo not drawn)	> 100	> 100	> 100 µM	> 100 µM		> 100	> 100			> 100 µM					> 100					
C=C1C(C2(C)C=CC(=O)OC3(C)COC(=O)CC32)C(OC=O)C(OC(=O)C(O)C(C)CC)C2(C)C(c3ccoc3)CC(OC(C)=O)C12O (stereo not drawn)	> 100	> 100	> 100 µM	> 100 µM	> 100	> 100	9.41			> 100 µM			> 100 µM		> 100					
COc1ccc(/C=c2/[nH]c(=O)/c(=C\c3ccc(OCc4ccccc4)cn3)[nH]c2=O)cc1	> 100	> 100	> 100 µM	> 100 µM	> 100	> 100	> 100			> 100 µM			> 100 µM		> 100					
CN(C)CCNc1c([N+](=O)[O-])cc2c3c(cccc13)C(=O)N(CCN(C)C)C2=O	5.03	3.09		6.44 µM	8.29	2.71	5.53			4.37 µM					> 20.4					
S=C(NCCCCCCNC(=S)Nc1c2ccccc2nc2ccccc12)Nc1c2ccccc2nc2ccccc12	> 100	> 94.3		> 100 µM	99.9	> 100	> 100			> 100 µM					> 100					
Cc1c2c(cc3c1[nH]c1ccccc13)C(c1ccc(F)cc1)=NCC2	4.2	5.34		5.11 µM	2.77	2.15	1.57			9.02 µM					7.78					
O=C1CS(=O)(=O)C(c2cccc(Oc3ccccc3)c2)N1c1cccc(Cl)c1Cl (stereo not drawn)	71.2	58.9	> 100 µM	37.4 µM	46.6	67.8	82.9			83.7 µM			> 100 µM		21.2					
OC(c1ccc(-c2ccccc2)cc1)(c1ccc(-c2ccccc2)cc1)c1ccc(-c2ccccc2)cc1	> 100	> 100	> 100 µM	> 100 µM		> 100				> 100 µM			> 100 µM		> 100					
CCn1cc(C(=O)O)c(=O)c2cc(F)c(N3CCN(Cn4c(O)c(N=NC(=O)c5ccncc5)c5cc(Cl)ccc54)CC3)cc21	> 100	36	> 100 µM	94.4 µM	63.1	> 100	37			> 100 µM			> 100 µM		> 100					
N#CCc1[nH]nc2nc(SCc3ccccc3)nc(N3CCCCC3)c12	41.4	37.9	33.6 µM	35.2 µM	37.8	34.7	43.6			39.5 µM			39.1 µM		40.4					
O=C1OC(c2ccccc2)=N/C1=C/c1cccs1	> 100	41.9		> 100 µM	> 100		44.5			> 100 µM					> 100					
COc1nc(C#CCCCC#N)nc(OC)n1	> 100	> 100	23.3 µM	26.7 µM	53.7	> 100	71.6			39.2 µM			> 100 µM		22.1					
OC1C=C2C3CN(Cc4cc5c(cc43)OCO5)[C@H]2C[C@@H]1O (stereo partly drawn)	46.3	> 100	71.2 µM	50.4 µM	> 100	> 100	19.3			28.6 µM			6.54 µM		22.2					
